# According to US12338243B2, “P2X7 modulators” (JANSSEN PHARMACEUTICA NV, priority 2014, dated 2025):
# Columns and labels:
# P2X7 = target: T1, P2X7 (Homo sapiens, UniProt Q99572); assay: Ca2+ flux (FLIPR) in 1321N1 cells expressing recombinant human P2X7 channel; assay type: cell-based; design: expressed in transfected cells; host or cells: 1321N1 cells; settings: 250 μM BzATP
# T1 sequence (Q99572 1-595): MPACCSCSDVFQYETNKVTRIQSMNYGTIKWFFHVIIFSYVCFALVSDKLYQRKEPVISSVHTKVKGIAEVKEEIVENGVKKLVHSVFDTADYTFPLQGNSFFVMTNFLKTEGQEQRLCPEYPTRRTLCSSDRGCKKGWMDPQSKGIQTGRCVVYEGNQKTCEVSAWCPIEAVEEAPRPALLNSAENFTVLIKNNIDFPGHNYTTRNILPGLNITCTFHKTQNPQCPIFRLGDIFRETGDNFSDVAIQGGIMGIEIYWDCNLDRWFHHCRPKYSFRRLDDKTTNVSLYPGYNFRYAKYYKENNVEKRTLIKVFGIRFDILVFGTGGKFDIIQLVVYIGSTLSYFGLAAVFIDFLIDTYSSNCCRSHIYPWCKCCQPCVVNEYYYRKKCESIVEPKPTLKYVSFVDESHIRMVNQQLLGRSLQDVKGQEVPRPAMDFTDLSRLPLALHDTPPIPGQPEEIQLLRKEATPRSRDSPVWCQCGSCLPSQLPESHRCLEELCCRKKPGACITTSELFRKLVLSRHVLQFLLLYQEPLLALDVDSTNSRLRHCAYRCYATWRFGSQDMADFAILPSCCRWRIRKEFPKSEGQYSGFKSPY
# Description: P2X7 Antagonism in Recombinant Human P2X7 Cells or Recombinant Rat P2X7 Cells: (a) Ca^2+ Flux and (b) Radioligand Binding
# (a) Ca^2+ flux: 1321N1 cells expressing the recombinant human or rat P2X7 channel was cultured in HyQ DME/(HyClone/Dulbecco's Modified Eagle Medium) high glucose supplemented with 10% Fetal Bovine Serum (FBS) and appropriate selection marker. Cells were seeded at a density of 25000 cells/well (96-well clear bottom black walled plates) in 100 μl volume/well. On the day of the experiment, cell plates were washed with assay buffer, containing (in mM): 130 NaCl, 2 KCl, 1 CaCl2), 1 MgCl2, 10 HEPES, 5 glucose; pH 7.40 and 300 mOs. After the wash, cells were loaded with the Calcium-4 dye (Molecular Device) and incubated in the dark for 60 minutes. Test compounds were prepared at 250× the test concentration in neat DMSO. Intermediate 96-well compound plates were prepared by transferring 1.2 μL of the compound into 300 μL of assay buffer. A further 3× dilution occurred when transferring 50 μL/well of the compound plate to 100 μL/well in the cell plate. Cells were incubated with test compounds and dye for 30 minutes. […] The fluorescence change was measured 180 seconds after adding the agonist.
# rat P2X7 = target: T2, rat P2X7 (Rattus norvegicus, UniProt Q64663); assay: Ca2+ flux (FLIPR) in 1321N1 cells expressing recombinant rat P2X7 channel; settings: FLIPR (rat) IC50 (μM), 250 μM BzATP
# T2 sequence (Q64663 1-595): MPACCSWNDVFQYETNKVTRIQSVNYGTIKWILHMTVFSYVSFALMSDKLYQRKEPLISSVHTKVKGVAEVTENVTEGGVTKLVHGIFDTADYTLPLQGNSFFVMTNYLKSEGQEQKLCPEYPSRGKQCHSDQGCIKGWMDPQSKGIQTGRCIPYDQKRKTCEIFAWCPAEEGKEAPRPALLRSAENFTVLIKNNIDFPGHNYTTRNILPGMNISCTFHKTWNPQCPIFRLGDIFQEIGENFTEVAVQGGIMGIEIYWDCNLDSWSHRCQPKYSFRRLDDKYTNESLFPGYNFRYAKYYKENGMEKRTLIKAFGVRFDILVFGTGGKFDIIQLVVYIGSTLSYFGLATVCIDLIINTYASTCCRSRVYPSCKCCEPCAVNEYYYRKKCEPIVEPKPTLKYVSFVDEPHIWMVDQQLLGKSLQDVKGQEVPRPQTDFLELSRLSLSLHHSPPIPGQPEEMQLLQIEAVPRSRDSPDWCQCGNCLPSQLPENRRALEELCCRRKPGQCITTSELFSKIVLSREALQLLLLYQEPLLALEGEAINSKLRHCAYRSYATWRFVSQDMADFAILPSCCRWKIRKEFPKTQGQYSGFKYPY
Structure (SMILES),IC50 (P2X7),IC50 (rat P2X7)
"C[C@H]1Cn2c(nnc2-c2cccc(F)c2F)CN1C(=O)c1cccc(C(F)(F)F)c1Cl [Example 45, (S)-(2-chloro-3-(trifluoromethyl)phenyl)(3-(2,3-difluorophenyl)-6-methyl-5,6-dihydro-[1,2,4]triazolo[4,3-a]pyrazin-7(8H)-yl)methanone]",1820 nM,0.408 µM
"C[C@H]1Cn2c(nnc2-c2cccc(F)c2F)CN1C(=O)c1ccc(F)c(Cl)c1Cl [Example 46, (S)-(2,3-dichloro-4-fluorophenyl)(3-(2,3-difluorophenyl)-6-methyl-5,6-dihydro-[1,2,4]triazolo[4,3-a]pyrazin-7(8H)-yl)methanone]",2540 nM,2.42 µM
"C[C@H]1Cn2c(nnc2-c2ccc(F)c(F)c2)CN1C(=O)c1cccc(Cl)c1Cl [Example 47, (S)-(2,3-dichlorophenyl)(3-(3,4-difluorophenyl)-6-methyl-5,6-dihydro-[1,2,4]triazolo[4,3-a]pyrazin-7(8H)-yl)methanone]",10400 nM,1.61 µM
"C[C@H]1Cn2c(nnc2-c2ccc(F)c(F)c2)CN1C(=O)c1cccc(C(F)(F)F)c1Cl [Example 48, (S)-(2-chloro-3-(trifluoromethyl)phenyl)(3-(3,4-difluorophenyl)-6-methyl-5,6-dihydro-[1,2,4]triazolo[4,3-a]pyrazin-7(8H)-yl)methanone]",1660 nM,0.637 µM
"C[C@H]1Cn2c(nnc2-c2ccc(F)c(F)c2)CN1C(=O)c1ccc(F)c(Cl)c1Cl [Example 49, (S)-(2,3-dichloro-4-fluorophenyl)(3-(3,4-difluorophenyl)-6-methyl-5,6-dihydro-[1,2,4]triazolo[4,3-a]pyrazin-7(8H)-yl)methanone]",4110 nM,2.73 µM
"C[C@H]1Cn2c(nnc2-c2ccc(F)cc2F)CN1C(=O)c1cccc(C(F)(F)F)c1Cl [Example 51, (S)-(2-chloro-3-(trifluoromethyl)phenyl)(3-(2,4-difluorophenyl)-6-methyl-5,6-dihydro-[1,2,4]triazolo[4,3-a]pyrazin-7(8H)-yl)methanone]",1930 nM,0.578 µM
"C[C@H]1Cn2c(nnc2-c2ccc(F)cc2F)CN1C(=O)c1ccc(F)c(Cl)c1Cl [Example 52, (S)-(2,3-dichloro-4-fluorophenyl)(3-(2,4-difluorophenyl)-6-methyl-5,6-dihydro-[1,2,4]triazolo[4,3-a]pyrazin-7(8H)-yl)methanone]",7050 nM,2.09 µM
"CC1c2nnc(C3CCCCC3)n2CCN1C(=O)c1cccc(C(F)(F)F)c1Cl (centres unmarked) [Example 61, (2-chloro-3-(trifluoromethyl)phenyl)(3-cyclohexyl-8-methyl-5,6-dihydro-[1,2,4]triazolo[4,3-a]pyrazin-7(8H)-yl)methanone]",340 nM,> 10 µM
"CC1c2nnc(C3CC3)n2CCN1C(=O)c1cccc(C(F)(F)F)c1Cl (centres unmarked) [Example 65, (2-chloro-3-(trifluoromethyl)phenyl)(3-cyclopropyl-8-methyl-5,6-dihydro-[1,2,4]triazolo[4,3-a]pyrazin-7(8H)-yl)methanone]",> 10000 nM,> 10 µM
COc1ccc(-c2nnc3n2C[C@H](C)N(C(=O)c2cccc(C(F)(F)F)c2Cl)C3)nc1 [Example 71],1220 nM,> 10 µM
"O=C(c1cccc(C(F)(F)F)c1Cl)N1CCn2c(C3CC3)nnc2[C@H]1c1ccccc1 [Example 77, (R)-(2-chloro-3-(trifluoromethyl)phenyl)(3-cyclopropyl-8-phenyl-5,6-dihydro-[1,2,4]triazolo[4,3-a]pyrazin-7(8H)-yl)methanone]",589 nM,1.11 µM

# Next, values leading:
IC50 (P2X7),IC50 (rat P2X7),Structure (SMILES)
14.3 nM,6.61 µM,"COc1cnc(-c2nnc3n2C[C@H](C)N(C(=O)c2cccc(C(F)(F)F)c2Cl)C3)nc1 [Example 78, (S)-(2-chloro-3-(trifluoromethyl)phenyl)(3-(5-methoxypyrimidin-2-yl)-6-methyl-5,6-dihydro-[1,2,4]triazolo[4,3-a]pyrazin-7(8H)-yl)methanone]"
959 nM,1.85 µM,"CC(C)(C)c1nnc2n1CCN(C(=O)c1cccc(C(F)(F)F)c1Cl)[C@H]2c1ccccc1 [Example 82, (S)-(3-(tert-butyl)-8-phenyl-5,6-dihydro-[1,2,4]triazolo[4,3-a]pyrazin-7(8H)-yl)(2-chloro-3-(trifluoromethyl)phenyl)methanone]"
1790 nM,0.998 µM,"O=C(c1cccc(C(F)(F)F)c1Cl)N1CCn2c(-c3ccco3)nnc2[C@H]1c1ccccc1 [Example 83, (R)-(2-chloro-3-(trifluoromethyl)phenyl)(3-(furan-2-yl)-8-phenyl-5,6-dihydro-[1,2,4]triazolo[4,3-a]pyrazin-7(8H)-yl)methanone]"
3810 nM,9.93 µM,"CCc1nnc2n1CCN(C(=O)c1cccc(C(F)(F)F)c1Cl)[C@H]2c1ccccc1 [Example 87, (S)-(2-chloro-3-(trifluoromethyl)phenyl)(3-ethyl-8-phenyl-5,6-dihydro-[1,2,4]triazolo[4,3-a]pyrazin-7(8H)-yl)methanone]"
980 nM,> 10 µM,"CC(C)c1nnc2n1CCN(C(=O)c1cccc(C(F)(F)F)c1Cl)[C@H]2c1ccccc1 [Example 89, (S)-(2-chloro-3-(trifluoromethyl)phenyl)(3-isopropyl-8-phenyl-5,6-dihydro-[1,2,4]triazolo[4,3-a]pyrazin-7(8H)-yl)methanone]"
755 nM,17.7 µM,"Cc1nnc2n1CCN(C(=O)c1cccc(C(F)(F)F)c1Cl)[C@H]2c1ccccn1 [Example 92, (S)-(2-chloro-3-(trifluoromethyl)phenyl)(3-methyl-8-(pyridin-2-yl)-5,6-dihydro-[1,2,4]triazolo[4,3-a]pyrazin-7(8H)-yl)methanone]"
434 nM,2.16 µM,"O=C(c1cccc(C(F)(F)F)c1Cl)N1CCn2c(C3CCC3)nnc2[C@@H]1c1ccccc1 [Example 94, (S)-(2-chloro-3-(trifluoromethyl)phenyl)(3-cyclobutyl-8-phenyl-5,6-dihydro-[1,2,4]triazolo[4,3-a]pyrazin-7(8H)-yl)methanone]"
5510 nM,> 10 µM,"O=C(c1cccc(C(F)(F)F)c1Cl)N1CCn2c(nnc2C(F)(F)F)[C@@H]1c1ccccc1 [Example 98, (S)-(2-chloro-3-(trifluoromethyl)phenyl)(8-phenyl-3-(trifluoromethyl)-5,6-dihydro-[1,2,4]triazolo[4,3-a]pyrazin-7(8H)-yl)methanone]"
1400 nM,> 10 µM,"O=C(c1cccc(Cl)c1Cl)N1CCn2c(nnc2C(F)(F)F)[C@@H]1c1ccccc1 [Example 103, (S)-(2,3-dichlorophenyl)(8-phenyl-3-(trifluoromethyl)-5,6-dihydro-[1,2,4]triazolo[4,3-a]pyrazin-7(8H)-yl)methanone]"
4480 nM,> 10 µM,"Cc1nnc2n1CCN(C(=O)c1cccc(Cl)c1Cl)[C@@H]2c1ccc(F)cc1 [Example 104, (R)-(2,3-dichlorophenyl)(8-(4-fluorophenyl)-3-methyl-5,6-dihydro-[1,2,4]triazolo[4,3-a]pyrazin-7(8H)-yl)methanone]"
> 10000 nM,> 10 µM,"O=C(c1cccc(C(F)(F)F)c1Cl)N1CCn2c(C3CC3)nnc2[C@H]1c1ccc(F)cc1 [Example 106, (R)-(2-chloro-3-(trifluoromethyl)phenyl)(3-cyclopropyl-8-(4-fluorophenyl)-5,6-dihydro-[1,2,4]triazolo[4,3-a]pyrazin-7(8H)-yl)methanone]"
